Patent US7670613B2, “Androgen modulators” (Pfizer Inc., priority 2004, dated 2010)

Assays:
[1] = molecular target: T1, hAR (Homo sapiens, UniProt P10275); experiment: Competitive binding analysis on baculovirus/Sf9 generated hAR extracts with 3H-DHT tracer; details: AR Binding IC50, hAR extract, 1 nM 3H-DHT, one hour at 4° C.; mean of multiple tests
T1 construct: made in house; host or cells: baculovirus/Sf9 insect cells
T1 sequence (P10275 1-920): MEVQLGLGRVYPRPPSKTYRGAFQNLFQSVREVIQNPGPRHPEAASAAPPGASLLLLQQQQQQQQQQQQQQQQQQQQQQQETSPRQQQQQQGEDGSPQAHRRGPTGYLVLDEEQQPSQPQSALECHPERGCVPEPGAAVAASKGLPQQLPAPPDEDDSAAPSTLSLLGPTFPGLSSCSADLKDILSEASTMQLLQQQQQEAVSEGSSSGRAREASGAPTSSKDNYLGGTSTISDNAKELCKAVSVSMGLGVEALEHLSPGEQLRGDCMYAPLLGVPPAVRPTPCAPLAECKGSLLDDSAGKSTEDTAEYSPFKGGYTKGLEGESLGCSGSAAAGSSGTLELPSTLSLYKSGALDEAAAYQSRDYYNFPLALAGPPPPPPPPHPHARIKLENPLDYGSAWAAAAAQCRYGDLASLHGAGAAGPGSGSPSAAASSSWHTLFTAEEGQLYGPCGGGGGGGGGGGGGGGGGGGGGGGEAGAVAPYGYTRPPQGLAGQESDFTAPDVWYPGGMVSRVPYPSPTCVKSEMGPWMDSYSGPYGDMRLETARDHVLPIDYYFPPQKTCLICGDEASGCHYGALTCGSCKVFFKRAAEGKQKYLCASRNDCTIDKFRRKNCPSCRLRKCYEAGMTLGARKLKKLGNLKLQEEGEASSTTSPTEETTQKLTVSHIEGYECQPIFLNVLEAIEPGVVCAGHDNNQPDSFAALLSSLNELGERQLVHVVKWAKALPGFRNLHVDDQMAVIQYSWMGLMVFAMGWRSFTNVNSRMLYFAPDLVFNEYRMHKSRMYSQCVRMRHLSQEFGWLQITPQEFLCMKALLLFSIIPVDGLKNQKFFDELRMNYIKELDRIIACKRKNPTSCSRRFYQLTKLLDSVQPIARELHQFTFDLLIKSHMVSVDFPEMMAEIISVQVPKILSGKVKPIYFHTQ

[2] = system: male Syrian hamsters; experiment: Animal model for inhibition of sebum production (hamster ear); assay type: in vivo, Syrian hamster; details: topical 3.0 w/v %; for % CE reduction: cholesterol ester vs vehicle control; for % CE reduction / % WE reduction: twice daily, five days a week, 4 weeks, right ear; for Sum of WE & CE: sum of % WE and % CE reduction; for % WE reduction: wax ester vs vehicle control
Experimental: Animal Model for Inhibition of Sebum Production
Luderschmidt et al describes an animal model for testing whether compounds are capable of modulating sebum secretion. Arch. Derm. Res. 258, 185-191 (1977). This model uses male Syrian hamsters, whose ears contain sebaceous glands. The product of Example 14 was screened in this model.
Testing for sebum inhibition was carried out in the following manner. Male Syrian hamsters aged 9 to 10 weeks were introduced into the laboratory environment and acclimated for 2 weeks prior to use in the study. Each group consisted of 5 animals and run in parallel with vehicle and positive controls. Prior to administration, a sufficient quantity each compound was dissolved in 1 mL of a solvent consisting of ethanol, and propylene glycol (70/30% v/v) to achieve a final concentration of 3.0 w/v %.
Animals were dosed topically twice daily, five days a week, for 4 weeks. Each dose consisted of 25 micro liters of vehicle control or drug. The dose was applied to the ventral surfaces of both the right and left ears. All animals were sacrificed approximately 18-24 hours after the final dose. The right ears were collected from each animal and used for sebum analysis.
The ears were prepped for HPLC analysis in the following manner. One 8 mm distal biopsy punch was taken, just above the anatomical “V” mark in the ear to normalize the sample area. The punch was pulled apart. The ventral biopsy surface (the area where the topical dose was directly applied to the sebaceous glands) was retained for testing and the dorsal surface of the biopsy punch was discarded.
Tissue samples were blown with N2 gas and stored at −80° C. under nitrogen until HPLC analysis. In addition to ear samples, an aliquot of each drug and vehicle (at least 250 ul) was also stored at −80° C. for inclusion in the HPLC analysis.
HPLC analysis was carried out on an extract of the tissue sample. Tissue samples were contacted with 3 ml of solvent (a 4:1 admixture of 2,2,4-trimethylpentane and isopropyl alcohol). The mixture was shaken for 15 minutes and stored overnight at room temperature, protected from light. The next morning 1 milliliter of water was added to the sample and shaken for 15 minutes. The sample was then centrifuged at approximately 1500 rpm for 15 minutes. Two ml of the organic phase (top layer) was transferred to a glass vial, dried at 37° C., under nitrogen, for approximately 1 hour, and then lyophilized for approximately 48 hours. The samples were then removed from the lyophilizer and each vial was reconstituted with 600 μl of solvent A (trimethylpentane/tetrahydrofuran (99:1). The samples were then recapped and vortexed for 5 minutes.
200 μl of each sample was then transferred to a pre-labeled 200 μl HPLC vial with 200 μL glass inserts. The HPLC vials were placed in the autosampler tray for the Agilent 1100 series HPLC unit. The Agilent 1100 HPLC system consisted of a thermostated autosampler, a quarternary pump, a column heater, and an A/D interface module. All components were controlled by Agilent ChemStation software. A Waters Spherisorb S3W 4.6×100 mm analytical column was maintained at 30° C. by the Agilent column heater unit. The HPLC autosampler was programmed to maintain the sample temperature at 20 C. throughout the run.
10 uL of each sample was injected in triplicate into the column. Two solvents were used for the solvent gradient. Solvent A was an admixture of trimethylpentane and tetrahydrofuran (99:1). Solvent B was ethylacetate. The gradient utilized is described in the table below: […]
The Sedex 75 Evaporative Light Scattering Detector (ELSD) was operated at 45° C. with a gain of 5, and N2 pressure maintained at 3.1 bar. Analog signal obtained by the instrument was sent to the Agilent A/D interface module where it was converted to a digital output. The conversion was based on a 10000 mAU/volt set point and the data rate was set at 10 Hz (0.03 min). […]

SMILES	IC50 [1] [nM]	% CE reduction [2] [%]	Sum of WE & CE [2]	% WE reduction [2] [%]
N#Cc1ccc(O[C@@H]2CCCC[C@H]2C#N)cc1C(F)(F)F (single isomer, unassigned) [Example 72, (trans)-(−)-4-(2-Cyano-cyclohexyloxy)-2-trifluoromethyl-benzonitrile]	43	68	153	85
N#Cc1ccc(O[C@@H]2CCCCC2C#N)cc1C(F)(F)F (stereo in doubt) [Example 14, -4-(2-Cyano-cyclohexyloxy)-2-trifluoromethyl-benzonitrile]	58	84	179	95
CC1CCCCC1Oc1ccc(C#N)c(C(F)(F)F)c1 (stereo not drawn) [Example 8, 4-(2-Methyl-cyclohexyloxy)-2-trifluoromethyl-benzonitrile]	106			
